From ChEMBL document CHEMBL1649076, “Discovery of 5-chloro-N2-[(1S)-1-(5-fluoropyrimidin-2-yl)ethyl]-N4-(5-methyl-1H-pyrazol-3-yl)pyrimidine-2,4-diamine (AZD1480) as a novel inhibitor of the Jak/Stat pathway” (J Med Chem, 2011)

Legend:
[1] = Aqueous equilibrium solubility of the compound at pH 7.4 by HPLC-UV analysis; type: physicochemical
[2] = molecular target: T1, Tyrosine-protein kinase JAK3 (Homo sapiens, UniProt P52333); test: Inhibition of JAK3 using 5 mM of ATP
T1 sequence (P52333 whole entry): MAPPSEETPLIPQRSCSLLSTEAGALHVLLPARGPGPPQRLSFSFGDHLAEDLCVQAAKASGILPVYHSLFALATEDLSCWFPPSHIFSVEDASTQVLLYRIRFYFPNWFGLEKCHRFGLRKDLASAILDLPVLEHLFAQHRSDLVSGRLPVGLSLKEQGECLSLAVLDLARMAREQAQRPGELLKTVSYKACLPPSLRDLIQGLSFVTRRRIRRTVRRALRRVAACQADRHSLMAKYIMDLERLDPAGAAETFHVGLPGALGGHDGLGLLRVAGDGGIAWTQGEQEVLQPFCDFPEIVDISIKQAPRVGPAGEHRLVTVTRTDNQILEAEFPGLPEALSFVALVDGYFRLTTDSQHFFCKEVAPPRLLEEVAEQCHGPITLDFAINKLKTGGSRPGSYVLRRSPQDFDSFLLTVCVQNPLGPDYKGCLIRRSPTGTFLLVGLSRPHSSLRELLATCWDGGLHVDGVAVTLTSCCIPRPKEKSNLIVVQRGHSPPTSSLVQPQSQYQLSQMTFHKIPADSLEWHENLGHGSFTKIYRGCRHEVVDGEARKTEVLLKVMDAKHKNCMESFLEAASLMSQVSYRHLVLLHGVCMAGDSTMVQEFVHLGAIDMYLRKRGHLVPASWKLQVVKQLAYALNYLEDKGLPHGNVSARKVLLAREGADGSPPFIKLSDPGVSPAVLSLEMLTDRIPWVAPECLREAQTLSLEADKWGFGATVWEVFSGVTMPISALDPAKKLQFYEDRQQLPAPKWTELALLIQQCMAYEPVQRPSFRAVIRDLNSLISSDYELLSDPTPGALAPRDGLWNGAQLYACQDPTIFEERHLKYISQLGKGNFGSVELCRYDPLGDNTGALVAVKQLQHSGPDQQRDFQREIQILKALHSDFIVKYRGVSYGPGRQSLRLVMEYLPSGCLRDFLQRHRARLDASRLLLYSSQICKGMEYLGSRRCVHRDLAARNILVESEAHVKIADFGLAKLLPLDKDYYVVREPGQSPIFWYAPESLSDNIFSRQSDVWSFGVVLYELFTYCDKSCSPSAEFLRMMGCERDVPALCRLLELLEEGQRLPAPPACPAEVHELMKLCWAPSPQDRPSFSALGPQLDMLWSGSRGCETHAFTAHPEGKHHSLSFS

[3] = Octanol-water partition coefficient, log D of the compound at pH 7.4 by shake flask method; type: physicochemical
[4] = molecular target: T2, Tyrosine-protein kinase JAK2 (Homo sapiens, UniProt O60674); test: Inhibition of JAK2 using Km ATP concentration
T2 sequence (O60674 whole entry): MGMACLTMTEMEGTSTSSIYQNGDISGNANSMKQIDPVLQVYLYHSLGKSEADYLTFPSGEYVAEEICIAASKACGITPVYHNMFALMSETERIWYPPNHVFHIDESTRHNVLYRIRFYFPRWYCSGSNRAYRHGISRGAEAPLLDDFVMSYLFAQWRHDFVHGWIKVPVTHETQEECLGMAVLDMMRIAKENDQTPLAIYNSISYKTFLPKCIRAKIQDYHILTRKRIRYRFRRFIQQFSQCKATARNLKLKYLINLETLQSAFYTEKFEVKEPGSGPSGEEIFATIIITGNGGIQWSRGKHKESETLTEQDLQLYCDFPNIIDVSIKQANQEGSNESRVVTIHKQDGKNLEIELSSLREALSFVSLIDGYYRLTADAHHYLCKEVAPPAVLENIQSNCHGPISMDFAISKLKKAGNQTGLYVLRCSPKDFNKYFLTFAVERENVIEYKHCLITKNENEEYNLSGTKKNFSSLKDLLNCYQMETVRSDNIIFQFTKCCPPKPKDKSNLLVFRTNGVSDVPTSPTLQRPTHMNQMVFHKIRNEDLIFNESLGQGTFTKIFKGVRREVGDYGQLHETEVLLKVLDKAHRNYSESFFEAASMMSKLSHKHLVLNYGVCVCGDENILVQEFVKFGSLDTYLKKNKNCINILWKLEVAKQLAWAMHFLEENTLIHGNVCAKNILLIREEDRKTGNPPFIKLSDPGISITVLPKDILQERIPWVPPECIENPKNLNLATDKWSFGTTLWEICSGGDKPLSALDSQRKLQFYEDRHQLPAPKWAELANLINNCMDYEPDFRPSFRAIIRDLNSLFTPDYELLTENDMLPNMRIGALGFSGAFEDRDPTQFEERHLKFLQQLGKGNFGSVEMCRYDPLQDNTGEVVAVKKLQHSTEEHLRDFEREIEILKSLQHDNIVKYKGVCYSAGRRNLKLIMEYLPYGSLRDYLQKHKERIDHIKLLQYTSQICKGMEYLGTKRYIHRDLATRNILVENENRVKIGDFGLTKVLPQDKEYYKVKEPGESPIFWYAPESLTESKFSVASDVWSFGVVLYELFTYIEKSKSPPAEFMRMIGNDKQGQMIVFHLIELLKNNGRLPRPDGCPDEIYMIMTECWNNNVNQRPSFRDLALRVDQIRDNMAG

[5] = Growth inhibition of mouse BA/F3 cells expressing Tel-JAK2 kinase after 48 hrs by MTS assay; type: functional; conditions: BaF3, 48 h
[6] = molecular target: T2, Tyrosine-protein kinase JAK2; test: Inhibition of JAK2 using 5 mM of ATP
[7] = Volume of distribution at steady state in Han Wistar rat at 10 mg/kg, po and 3 mg/kg, iv; type: ADME, organism-based; conditions: in vivo, read-out: Vdss
[8] = Observed clearance in Han Wistar rat at 10 mg/kg, po and 3 mg/kg, iv; type: ADME, organism-based; conditions: in vivo
[9] = Half life in Han Wistar rat at 10 mg/kg, po and 3 mg/kg, iv; type: ADME, organism-based; conditions: in vivo
[10] = tested on: Liver microsomes; test: Intrinsic clearance in rat liver microsomes assessed per mg of protein at 2 uM by LCMS/MS analysis; type: ADME, Microsome
[11] = Oral bioavailability in Han Wistar rat at 10 mg/kg; type: ADME, organism-based; conditions: in vivo
[12] = AUC (0 to 24 hrs) in Han Wistar rat at 10 mg/kg, po; type: ADME, organism-based; design: time < 24 hr, dose 10 mg/kg, route oral; conditions: plasma
[13] = Growth inhibition of human SET2 cells expressing Jak2 V617F mutant after 48 hrs by MTS assay; type: functional; conditions: SET-2, 48 h
[14] = tested on: Mus musculus; test: Antitumor activity against mouse BA/F3 cells expressing Tel-JAK2 xenografted in NCr mouse assessed as reduction of phosphorylated Stat5 level in spleen at 10 mg/kg, po after 8 hrs by Western blotting; type: functional, BaF3; design: scale not given: the % may be the effect or the level left
[15] = AUC (0 to 12 hrs) in Beagle dog at 10 mg/kg, po; type: ADME, organism-based, Canis lupus familiaris; design: time < 12 hr, dose 10 mg/kg, route oral; conditions: plasma
[16] = AUC (0 to 12 hrs) in CD1 mouse at 10 mg/kg, po; type: ADME, organism-based; design: time < 12 hr, dose 10 mg/kg, route oral; conditions: plasma
[17] = Antitumor activity against mouse BA/F3 cells expressing Tel-JAK2-luc xenografted in NCr mouse assessed as reduction of bioluminescent signal at 50 mg/kg, po bid measured on day 9 post-tumor cell implantation relative to control; type: functional, BaF3
[18] = Growth inhibition of human UKE1 cells expressing Jak2 V617F mutant after 48 hrs by MTS assay; type: functional; conditions: UKE1, 48 h
[19] = Half life in CD1 mouse at 10 mg/kg, po; type: ADME, organism-based; design: dose 10 mg/kg, route oral; conditions: in vivo
[20] = Observed clearance in Beagle dog at 2.5 mg/kg, iv; type: ADME, organism-based, Canis lupus familiaris; design: dose 2.5 mg/kg, route intravenous; conditions: in vivo
[21] = Half life in Beagle dog at 2.5 mg/kg, iv; type: ADME, organism-based, Canis lupus familiaris; design: dose 2.5 mg/kg, route intravenous; conditions: in vivo
[22] = Oral bioavailability in CD1 mouse at 10 mg/kg; type: ADME, organism-based; conditions: in vivo
[23] = Growth inhibition of mouse BA/F3 cells expressing Tel-Tyk2 kinase after 48 hrs by MTS assay; type: functional; conditions: BaF3, 48 h
[24] = Volume of distribution at steady state in Beagle dog at 2.5 mg/kg, iv; type: ADME, organism-based, Canis lupus familiaris; design: dose 2.5 mg/kg, route intravenous; conditions: in vivo, read-out: Vdss
[25] = tested on: Mus musculus; test: Antitumor activity against mouse BA/F3 cells expressing Tel-JAK2 xenografted in NCr mouse assessed as reduction of phosphorylated Stat5 level in spleen at 5 mg/kg, po after 6 hrs by Western blotting; type: functional, BaF3; design: scale not given: the % may be the effect or the level left
[26] = Half life in CD1 mouse at 3 mg/kg, iv; type: ADME, organism-based; design: dose 3 mg/kg, route intravenous; conditions: in vivo
[27] = tested on: Mus musculus; test: Antitumor activity against mouse BA/F3 cells expressing Tel-JAK2 xenografted in NCr mouse assessed as reduction of phosphorylated Stat5 level in spleen at 5 mg/kg, po after 2 hrs by Western blotting; type: functional, BaF3; design: scale not given: the % may be the effect or the level left
[28] = Oral bioavailability in Beagle dog at 10 mg/kg; type: ADME, organism-based, Canis lupus familiaris; conditions: in vivo
[29] = Observed clearance in CD1 mouse at 3 mg/kg, iv; type: ADME, organism-based; design: dose 3 mg/kg, route intravenous; conditions: in vivo
[30] = Inhibition of Stat5 phosphorylation in mouse Ba/F3 cells expressing TEL-Jak2; type: cell-based; conditions: BaF3
[31] = Volume of distribution at steady state in CD1 mouse at 3 mg/kg, iv; type: ADME, organism-based; design: dose 3 mg/kg, route intravenous; conditions: in vivo, read-out: Vdss
[32] = Antitumor activity against mouse BA/F3 cells expressing Tel-JAK2-luc xenografted in NCr mouse assessed as reduction of bioluminescent signal at 30 mg/kg, po bid measured on day 9 post-tumor cell implantation relative to control; type: functional, BaF3
[33] = Growth inhibition of mouse BA/F3 cells expressing Tel-JAK1 kinase after 48 hrs by MTS assay; type: functional; conditions: BaF3, 48 h
[34] = tested on: HEL; test: Growth inhibition of human HEL cells expressing Jak2 V617F mutant after 48 hrs by MTS assay; type: functional
[35] = Half life in Beagle dog at 10 mg/kg, po; type: ADME, organism-based, Canis lupus familiaris; design: dose 10 mg/kg, route oral; conditions: in vivo
[36] = molecular target: High affinity nerve growth factor receptor (Homo sapiens, UniProt P04629); test: Inhibition of TrkA
Chain of High affinity nerve growth factor receptor (P04629 whole entry): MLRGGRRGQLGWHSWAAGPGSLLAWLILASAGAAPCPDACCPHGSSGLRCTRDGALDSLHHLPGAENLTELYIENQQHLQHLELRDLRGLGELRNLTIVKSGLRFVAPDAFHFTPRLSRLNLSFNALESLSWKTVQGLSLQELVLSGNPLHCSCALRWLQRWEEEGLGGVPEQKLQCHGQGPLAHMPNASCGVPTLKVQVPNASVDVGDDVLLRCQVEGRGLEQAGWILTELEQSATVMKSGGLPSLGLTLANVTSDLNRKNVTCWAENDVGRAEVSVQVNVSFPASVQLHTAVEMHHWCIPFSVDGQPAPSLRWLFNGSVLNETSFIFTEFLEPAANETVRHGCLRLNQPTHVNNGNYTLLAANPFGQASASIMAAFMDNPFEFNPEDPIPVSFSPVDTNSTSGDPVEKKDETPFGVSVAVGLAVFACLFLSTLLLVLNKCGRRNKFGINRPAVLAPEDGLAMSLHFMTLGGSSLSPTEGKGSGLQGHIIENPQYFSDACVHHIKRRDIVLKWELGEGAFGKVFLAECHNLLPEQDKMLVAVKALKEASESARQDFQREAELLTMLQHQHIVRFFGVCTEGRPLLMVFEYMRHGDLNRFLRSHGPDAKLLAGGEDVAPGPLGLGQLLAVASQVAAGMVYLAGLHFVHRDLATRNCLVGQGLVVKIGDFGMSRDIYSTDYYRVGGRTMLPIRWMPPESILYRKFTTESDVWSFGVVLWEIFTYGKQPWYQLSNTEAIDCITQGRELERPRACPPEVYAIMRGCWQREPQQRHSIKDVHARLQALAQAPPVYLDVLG

[37] = Growth inhibition of mouse BA/F3 cells expressing Tel-JAK3 kinase after 48 hrs by MTS assay; type: functional; conditions: BaF3, 48 h

Structure (SMILES): C[C@H](Nc1ncc(Cl)c(Nc2cc(N(C)C)[nH]n2)n1)c1ncc(F)cn1
- solubility thermodynamic [1]: > 460 µM
- IC50 [2]: > 30000 nM
- logD [3]: < 2.6
- IC50 [4]: 9 nM
- GI50 [5]: 1200 nM
- IC50 [6]: 488 nM

Structure (SMILES): C[C@H](Nc1ncc(F)c(Nc2cc(N(C)C)[nH]n2)n1)c1ncc(F)cn1
- solubility thermodynamic [1]: > 460 µM
- IC50 [2]: > 30000 nM
- logD [3]: < 2.6
- IC50 [4]: 16 nM
- GI50 [5]: 2200 nM
- IC50 [6]: 815 nM

Structure (SMILES): Cc1cc(Nc2cc(N3CCOCC3)nc(N[C@@H](C)c3ncc(F)cn3)n2)[nH]n1
- Vd [7]: 1.4 L/kg
- solubility thermodynamic [1]: > 460 µM
- clearance [8]: 18 mL/min/kg
- IC50 [2]: 30 nM
- logD [3]: < 2.6
- IC50 [4]: < 3 nM
- GI50 [5]: 50 nM
- IC50 [6]: < 3 nM
- half-life [9]: 1.1 h
- clearance [10]: 10 µL/min/mg
- bioavailability [11]: 64%

Structure (SMILES): Cc1cc(Nc2nc(N[C@@H](C)c3ncc(F)cn3)nc(N3CCOCC3)c2F)n[nH]1
- Vd [7]: 1.7 L/kg
- solubility thermodynamic [1]: > 460 µM
- clearance [8]: 14 mL/min/kg
- IC50 [2]: > 30000 nM
- logD [3]: < 2.6
- IC50 [4]: < 3 nM
- GI50 [5]: 13 nM
- IC50 [6]: < 3 nM
- half-life [9]: 1.9 h
- bioavailability [11]: 34%

Structure (SMILES): Cc1cc(Nc2nc(N[C@@H](C)c3ncc(F)cn3)nc(N3CCOCC3)c2Cl)n[nH]1
- Vd [7]: 4.6 L/kg
- solubility thermodynamic [1]: > 460 µM
- clearance [8]: 221 mL/min/kg
- IC50 [2]: 11800 nM
- logD [3]: < 2.6
- IC50 [4]: < 3 nM
- GI50 [5]: 17 nM
- IC50 [6]: 9 nM
- half-life [9]: 0.36 h
- clearance [10]: 16 µL/min/mg
- bioavailability [11]: 20%

Structure (SMILES): COc1cc(Nc2cc(N3CCOCC3)nc(N[C@@H](C)c3ncc(F)cn3)n2)n[nH]1
- solubility thermodynamic [1]: > 460 µM
- IC50 [2]: 200 nM
- logD [3]: < 2.6
- IC50 [4]: 10 nM
- GI50 [5]: 73 nM
- IC50 [6]: 30 nM

Structure (SMILES): COc1cc(Nc2nc(N[C@@H](C)c3ncc(F)cn3)nc(N3CCOCC3)c2F)n[nH]1
- solubility thermodynamic [1]: > 460 µM
- IC50 [2]: 30500 nM
- logD [3]: < 2.6
- IC50 [4]: 4 nM
- GI50 [5]: 240 nM
- IC50 [6]: 8 nM

Structure (SMILES): COc1cc(Nc2nc(N[C@@H](C)c3ncc(F)cn3)nc(N3CCOCC3)c2Cl)n[nH]1
- solubility thermodynamic [1]: > 460 µM
- IC50 [2]: 2960 nM
- logD [3]: < 2.6
- IC50 [4]: 4 nM
- GI50 [5]: 1300 nM
- IC50 [6]: 90 nM

Structure (SMILES): Cc1cc(Nc2nc(N[C@H](C)c3ncc(F)cn3)ncc2Cl)n[nH]1
- Vd [7]: 3 L/kg
- solubility thermodynamic [1]: > 460 µM
- clearance [8]: 19 mL/min/kg
- logD [3]: < 2.6
- GI50 [5]: 11000 nM
- half-life [9]: 2.9 h
- AUC(0-t) at 24 h [12]: 33.5 µM·h

Structure (SMILES): Cc1cc(Nc2nc(N[C@@H](C)c3ncc(F)cn3)ncc2Cl)n[nH]1 [AZD-1480]
- Vd [7]: 3.6 L/kg
- GI50 [13]: 16 nM
- solubility thermodynamic [1]: > 460 µM
- clearance [8]: 8.9 mL/min/kg
- Activity [14]: >70%
- IC50 [2]: 1360 nM
- AUC(0-t) at 12 h [15]: 350 µM·h
- AUC(0-t) at 12 h [16]: 57.6 µM·h
- Activity [17]: 44
- GI50 [18]: 54 nM
- half-life [19]: 2 h
- clearance [20]: 2 mL/min/kg
- half-life [21]: 6.9 h
- bioavailability [22]: 100%
- GI50 [23]: 2000 nM
- Vd [24]: 1 L/kg
- Activity [25]: 50%
- half-life [26]: 1.5 h
- Activity [27]: 90%
- bioavailability [28]: 100%
- clearance [29]: 13.5 mL/min/kg
- logD [3]: < 2.6
- IC50 [4]: < 3 nM
- IC50 [30]: 46 nM
- Vd [31]: 1.1 L/kg
- GI50 [5]: 60 nM
- Activity [32]: 9
- IC50 [6]: 58 nM
- half-life [9]: 4.7 h
- clearance [10]: 11 µL/min/mg
- GI50 [33]: 700 nM
- GI50 [34]: 390 nM
- bioavailability [11]: 47%
- half-life [35]: 8.5 h
- IC50 [36]: 3 nM
- GI50 [37]: 2100 nM
